The record followed here is patent US20130150376A1, “Novel Sultam Compounds” (PFIZER INC., priority 2010, published 2013).

Counter-ions that a name gives are not always drawn. Like-named read-outs stand apart in the source and are kept apart here.

The target of this assay is T1, BACE1 enzyme (soluble, truncated BACE enzyme, BACE1deltaTM96His) (Homo sapiens, UniProt P56817).
T1 construct: soluble, truncated BACE enzyme (BACE1deltaTM96His); His; made in house
In words: BACE1 Fluorescent Polarization (FP) Assay. The settings on record: geometric mean of 2-4 IC50 determinations unless footnoted (^2: 5-6 determinations; ^4: single determination). Format: biochemical. The source says: BACE1 Fluorescent Polarization (FP) Assay
The fluorescently tagged synthetic substrate, Biotin-GLTNIKTEEISEISŶEVEFR-C[oregon green]KK-OH can be efficiently cleaved by the beta-secretase enzyme and is therefore useful to assay beta-secretase activity in the presence or absence of inhibitory compounds. The his tagged BACE1 enzyme was affinity purified material from conditioned media of CHO-K1 cells that had been transfected to express soluble, truncated BACE enzyme (BACE1deltaTM96His). Compounds were incubated in a ½ log dose response (from a top concentration of 100 μM) with BACE1 enzyme (0.1 nM final) and the biotinylated fluorescent peptide substrate (150 nM final) in assay buffer containing 100 mM sodium acetate, pH 4.5 (brought to pH with acetic acid), and 0.001% Tween-20. Total reaction volumes of 30 μL were carried out in 384-well black plates (Thermo Scientific 4318). Plates were covered and incubated for 3 hours at 37° C. The reactions were then stopped by addition of 30 μL of 1.5 μM Streptavidin (Pierce, 21125). After a 10 minute incubation at room temperature, plates were read on a PerkinElmer Envision for fluorescence polarization (Ex485 nm/Em530 nm). The activity of the beta-secretase enzyme is detected by changes in the fluorescence polarization (Δ mP) that occur when the substrate is cleaved by the enzyme.

[1] abbreviates: 8-point curve, read-out: BACE activity, 8-point curve, IC50.
Setting [2] is: 11-point curve, read-out: BACE activity, 11-point curve, IC50.

T1 sequence (P56817 46-457): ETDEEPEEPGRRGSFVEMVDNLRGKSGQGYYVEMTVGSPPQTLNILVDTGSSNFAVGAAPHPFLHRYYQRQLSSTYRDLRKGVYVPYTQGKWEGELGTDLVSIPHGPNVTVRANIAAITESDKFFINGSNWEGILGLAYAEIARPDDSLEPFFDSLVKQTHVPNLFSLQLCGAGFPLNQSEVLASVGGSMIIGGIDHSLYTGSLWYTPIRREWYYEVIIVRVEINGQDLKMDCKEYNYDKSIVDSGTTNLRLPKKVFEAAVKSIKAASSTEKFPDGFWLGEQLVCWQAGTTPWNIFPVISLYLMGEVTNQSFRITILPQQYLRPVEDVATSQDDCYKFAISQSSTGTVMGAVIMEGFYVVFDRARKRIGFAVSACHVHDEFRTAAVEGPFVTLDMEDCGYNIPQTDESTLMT

Regarding `CC(C)Oc1cc(CN2CC[C@]3(CCS(=O)(=O)N3c3cccc(F)c3)C[C@@H]2C)ncc1O` [Example 3, 6-{[(5R,7S)-1-(3-Fluorophenyl)-7-methyl-2,2-dioxido-2-thia-1,8-diazaspiro[4.5]dec-8-yl]methyl}-4-isopropoxypyridin-3-ol], the half-inhibitory concentration (IC50) runs as follows: under setting [1], 81.5 nM; under setting [2], 613 nM. In the case of `Cc1ccncc1-c1cccc(CN2CC[C@]3(C=CS(=O)(=O)N3c3cccc(F)c3)C[C@@H]2C)c1` [Example 39, (5R,7S)-1-(3-fluorophenyl)-7-methyl-8-[3-(4-methylpyridin-3-yl)benzyl]-2-thia-1,8-diazaspiro[4.5]dec-3-ene 2,2-dioxide, hydrochloride salt], the IC50 under setting [1] amounted to 79.5 nM and the IC50 under setting [2] amounted to 414 nM.

Regarding `C[C@H]1C[C@@]2(C=CS(=O)(=O)N2c2cccc(F)c2)CCN1Cc1ccc(O)c(Cl)c1` [Example 15, 2-chloro-4-{[(5R,7S)-1-(3-fluorophenyl}-7-methyl-2,2-dioxido-2-thia-1,8-diazaspiro[4.5]dec-3-en-8-yl]methyl}phenol, hydrochloride salt], the IC50 is, setting by setting: under setting [1], 754 nM; under setting [2], 478 nM. Consider `CCc1ccccc1-c1cc(CN2CC[C@]3(C=CS(=O)(=O)N3c3cccc(F)c3)C[C@@H]2C)ccc1O` [Example 6, 2′-ethyl-5-{[(5R,7S)-1-(3-fluorophenyl)-7-methyl-2,2-dioxido-2-thia-1,8-diazaspiro[4.5]dec-3-en-8-yl]methyl}biphenyl-2-ol], for which the concentration for half-maximal inhibition (IC50) under setting [1] was below 4.2 nM. In the case of `C[C@H]1CCO[C@H]1c1ocnc1CN1CC[C@]2(C=CS(=O)(=O)N2c2cccc(F)c2)C[C@@H]1C` (relative stereo) [Example 69, (5R,7S)-1-(3-fluorophenyl)-7-methy1-8-({5-[cis-3-methyltetrahydrofuran-2-yl]-1,3-oxazol-4-yl}methyl)-2-thia-1,8-diazaspiro[4.5]dec-3-ene 2,2-dioxide], the IC50 under setting [2] was determined as 7070 nM. Take `COC1=CS(=O)(=O)N(c2cccc(F)c2)[C@@]12CCN(Cc1cccc(OC(C)C)c1)[C@@H](C)C2` [Example 63, (5R,7S)-1-(3-fluorophenyl)-8-(3-isopropoxybenzyl)-4-methoxy-7-methyl-2-thia-1,8-diazaspiro[4.5]dec-3-ene 2,2-dioxide]: under setting [1], the IC50 is 5820 nM. For `C[C@H]1C[C@]2(CCN1Cc1ccc3[nH]ccc3c1)CCS(=O)(=O)N2c1cccc(F)c1` [Example 51, (5R,7S)-1-(3-fluorophenyl)-8-(1H-indol-5-ylmethyl)-7-methyl-2-thia-1,8-diazaspiro[4.5]decane 2,2-dioxide], the IC50 stood at 2080 nM under setting [1] and 5640 nM under setting [2]. `CC(C)Oc1cc(CN2CC[C@]3(C=CS(=O)(=O)N3c3ccc(F)c(F)c3)C[C@@H]2C)ccc1O` [Example 67, 4-{[(5R,7S)-1-(3,4-difluorophenyl)-7-methyl-2,2-dioxido-2-thia-1,8-diazaspiro[4.5]dec-3-en-8-yl]methyl}-2-isopropoxyphenol]: the half-inhibitory concentration (IC50) runs as follows: under setting [1], 59.3 nM; under setting [2], 429 nM. Consider `C[C@H]1C[C@]2(CCN1Cc1ccc(O)c(Cl)c1)CCS(=O)(=O)N2c1cccc(F)c1` [Example 29, 2-chloro-4-{[(5R7S)-1-(3-fluorophenyl)-7-methyl-2,2-dioxido-2-thia-1,8-diazaspiro[4.5]dec-8-yl]methyl}phenol, hydrochloride salt], for which the IC50 was found to be 332 nM under setting [1] and 1530 nM under setting [2]. `Cc1scnc1-c1cc(CN2CC[C@@]3(C[C@@H]2C)C(=O)CS(=O)(=O)N3c2cccc(F)c2)ccc1O` [Example 83, (5R,7S)-1-(3-fluorophenyl)-8-[4-hydroxy-3-(5-methyl-1,3-thiazol-4-yl)benzyl]-7-methyl-2-thia-1,8-diazaspiro[4.5]decan-4-one 2,2-dioxide]: the IC50 under setting [2] was found to be 240 nM.

As to `Cc1csnc1-c1cc(CN2CC[C@]3(CCS(=O)(=O)N3c3cnccn3)C[C@@H]2C)ccc1O` [Example 88, 4-{[(5R,7S)-7-methyl-2,2-dioxido-1-(pyrazin-2-yl)-2-thia-1,8-diazaspiro[4.5]dec-8-yl]methyl}-2-(4-methylisothiazol-3-yl)phenol], the concentration for half-maximal inhibition (IC50) under setting [2] was 457 nM. Still for that read-out and setting: as for `Cc1csnc1-c1cc(CN2CC[C@@]3(C[C@@H]2C)C(=O)CS(=O)(=O)N3c2cccc(F)c2)ccc1O` [Example 82, (5R,7S)-1-(3-fluorophenyl)-8-[4-hydroxy-3-(4-methylisothiazol-3-yl)benzyl]-7-methyl-2-thia-1,8-diazaspiro[4.5]decan-4-one 2,2-dioxide], the figure is 20.9 nM.

For `C[C@H]1C[C@@]2(C=CS(=O)(=O)N2c2cccc(F)c2)CCN1Cc1ncoc1-c1cncc(F)c1` [Example 40, (5R,7S)-1-(3-fluorophenyl)-8-{[5-(5-fluoropyridin-3-yl)-1,3-oxazol-4-yl]methyl}-7-methyl-2-thia-1,8-diazaspiro[4.5]dec-3-ene 2,2-dioxide, hydrochloride salt], the IC50 by setting is: under setting [1], 1380 nM; under setting [2], 2380 nM. For `C[C@H]1C[C@]2(CCN1Cc1ccc(O)c(C3CCCO3)c1)CCS(=O)(=O)N2c1cccc(F)c1` (single isomer, unassigned) [Example 46], in that order: 866 nM and 3010 nM.

As to `C[C@H]1C[C@]2(CCN1Cc1ncoc1-c1cncnc1)CCS(=O)(=O)N2c1cccc(F)c1` [Example 33, (5R,7S)-1-(3-fluorophenyl)-7-methyl-8-[(5-pyrimidin-5-yl-1,3-oxazol-4-yl)methyl]-2-thia-1,8-diazaspiro[4.5]decane 2,2-dioxide, hydrochloride salt], the IC50 under setting [2] turned out to be 3030 nM. With `C[C@H]1C[C@@]2(C=CS(=O)(=O)N2c2cccc(F)c2)CCN1Cc1scnc1CC1CC1` [Example 24, (5R,7S)-8-{[4-(cyclopropylmethyl)-1,3-thiazol-5-yl]methyl}-1-(3-fluorophenyl)-7-methyl-2-thia-1,8-diazaspiro[4.5]dec-3-ene 2,2-dioxide, hydrochloride salt], the IC50 is, setting by setting: under setting [1], 51.9 nM; under setting [2], 353 nM. For `Cc1ccncc1-c1ncsc1CN1CC[C@]2(C=CS(=O)(=O)N2c2cccc(F)c2)C[C@@H]1C` [Example 50, (5R,7S)-1-(3-fluorophenyl)-7-methyl-8-{[4-(4-methylpyridin-3-yl)-1,3-thiazol-5-yl]methyl}-2-thia-1,8-diazaspiro[4.5]dec-3-ene 2,2-dioxide, hydrochloride salt], in that order: 7180 nM and 25600 nM. For `CC(C)Oc1cccc(CN2CC[C@]3(CCS(=O)(=O)N3c3cccc(F)c3)C[C@@H]2C)c1` [Example 28, (5R,7S)-1-(3-fluorophenyl)-8-(3-isopropoxybenzyl)-7-methyl-2-thia-1,8-diazaspiro[4.5]decane 2,2-dioxide], in that order: 521 nM and 2160 nM. For `COc1ccc2[nH]c(CN3CC[C@]4(CCS(=O)(=O)N4c4cccc(F)c4)C[C@@H]3C)cc2c1` [Example 53, (5R,7S)-1-(3-fluorophenyl)-8-[(5-methoxy-1H-indol-2-yl)methyl]-7-methyl-2-thia-1,8-diazaspiro[4.5]decane 2,2-dioxide], in that order: 2290 nM and 4460 nM. With `Cc1scnc1-c1cc(CN2CC[C@]3(CCS(=O)(=O)N3c3cnccn3)C[C@@H]2C)ccc1O` [Example 89, 4-{[(5R,7S)-7-methyl-2,2-dioxido-1-(pyrazin-2-yl)-2-thia-1,8-diazaspiro[4.5]dec-8-yl]methyl}-2-(5-methyl-1,3-thiazol-4-yl)phenol], the half-maximal inhibitory concentration (IC50) worked out at 64.9 nM under setting [1] and 1230 nM under setting [2]. For `CCOc1cc(CN2CC[C@]3(C=CS(=O)(=O)N3c3cccc(F)c3)C[C@@H]2C)ccc1O` [Example 27, 2-ethoxy-4-{[(5R,7S)-1-(3-fluorophenyl)-7-methyl-2,2-dioxido-2-thia-1,8-diazaspiro[4.5]dec-3-en-8-yl]methyl}phenol], in that order: 116 nM and 269 nM. On to `C[C@H]1C[C@]2(CCN1Cc1ccc(O)c(C3CCCO3)c1)CCS(=O)(=O)N2c1cccc(F)c1` (mixture of isomers) [Example 61, 4-{[(5R,7S)-1-(3-fluorophenyl)-7-methyl-2,2-dioxido-2-thia-1,8-diazaspiro[4.5]dec-8-yl]methyl}-2-(tetrahydrofuran-2-yl)phenol], for which, under setting [1], the IC50 is below 30.5 nM. As for `Cc1cncc(-c2ocnc2CN2CC[C@]3(C=CS(=O)(=O)N3c3cccc(F)c3)C[C@@H]2C)c1` [Example 38, (5R,7S)-1-(3-fluorophenyl)-7-methyl-8-{[5-(5-methylpyridin-3-yl)-1,3-oxazol-4-yl]methyl}-2-thia-1,8-diazaspiro[4.5]dec-3-ene 2,2-dioxide], the IC50 is, setting by setting: under setting [1], 752 nM; under setting [2], 2780 nM. For `Cc1scnc1-c1cc(CN2CC[C@]3(C=CS(=O)(=O)N3c3cccc(F)c3)C[C@@H]2C)ccc1O` [Example 73, 4-{[(5R,7S)-1-(3-fluorophenyl)-7-methyl-2,2-dioxido-2-thia-1,8-diazaspiro[4.5]dec-3-en-8-yl]methyl}-2-(5-methyl-1,3-thiazol-4-yl)phenol, ammonium sail], in that order: 2.44 nM and 44.5 nM.

As usually defined, the IC50 is the concentration that inhibits the measured activity by half.
